Our source for the IC50 values is BindingDB's records for doi:10.3109/14756366.2011.643302 (Centre de Recherche de Gif, 2013).

Test [1] concerns the target T1, Protein farnesyltransferase subunit beta/geranylgeranyltransferase type-1 subunit alpha (Saccharomyces cerevisiae (strain ATCC 204508 / S288c), UniProt P22007+P29703).
T1 sequence (P22007 whole entry): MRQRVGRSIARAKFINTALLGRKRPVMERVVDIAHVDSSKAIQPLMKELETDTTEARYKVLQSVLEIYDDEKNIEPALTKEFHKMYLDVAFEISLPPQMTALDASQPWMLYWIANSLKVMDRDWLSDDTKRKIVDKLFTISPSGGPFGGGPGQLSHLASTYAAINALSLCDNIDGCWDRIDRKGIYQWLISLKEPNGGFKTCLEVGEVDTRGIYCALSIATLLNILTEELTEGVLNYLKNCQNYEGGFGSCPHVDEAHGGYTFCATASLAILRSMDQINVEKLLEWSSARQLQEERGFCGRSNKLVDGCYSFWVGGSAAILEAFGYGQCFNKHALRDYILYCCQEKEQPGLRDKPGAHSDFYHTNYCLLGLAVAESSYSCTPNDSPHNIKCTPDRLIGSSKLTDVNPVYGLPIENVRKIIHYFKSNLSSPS
T1 sequence (P29703 whole entry): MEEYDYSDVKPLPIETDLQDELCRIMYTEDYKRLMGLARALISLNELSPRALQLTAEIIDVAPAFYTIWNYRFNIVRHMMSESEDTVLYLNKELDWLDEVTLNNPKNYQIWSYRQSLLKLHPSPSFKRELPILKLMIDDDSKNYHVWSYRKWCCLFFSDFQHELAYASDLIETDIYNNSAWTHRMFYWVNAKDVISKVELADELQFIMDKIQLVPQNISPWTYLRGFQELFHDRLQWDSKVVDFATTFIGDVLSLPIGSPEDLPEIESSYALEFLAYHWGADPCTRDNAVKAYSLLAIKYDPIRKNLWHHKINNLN
Nature of the test: Yeast FTase Assay. The note with it: pH 7.5. As to the method: Assays were realized on 96-well plates, prepared with Biomek NKMC and Biomek 3000 from Beckman Coulter and read on Wallac Victor fluorimeter from Perkin-Elmer. Per well, 20 μL of farnesyl pyrophosphate (10 μM) was added to 180 μL of a solution containing 2 μL of varied concentrations of potential inhibitors (dissolved in DMSO) and 178 μL of a solution composed by 0.1 mL of partially purified recombinant yeast FTase (2.2 mg/ mL) and 7.0 mL of dansyl-GCVLS peptide (in the following buffer: 5.8 mM DTT, 6 mM MgCl2, 12 μM ZnCl2 and 0.09% (w/v) CHAPS, 53 mM Tris/HCl, pH 7.5). Then the fluorescence development was recorded for 15 min(0.7 second per well, 20 repeats) at 30°C with an excitation filter at 340 nm and an emission filter at 486 nm. Each measurement was realized twice as duplicate ortriplicate.

The target of test [2] is Protein farnesyltransferase subunit beta/geranylgeranyltransferase type-1 subunit alpha (Homo sapiens, UniProt P49354+P49356). Nature of the test: Human FTase Assay.
Protocol: Assays were realized on 96-well plates, as described for yeast FTase but octyl-D-glucopyranoside (0.18%) was used instead of CHAPS and the solution contains 5 μLof partially purified human FTase (1.5 mg/mL)7 in 1 mL peptide solution.
In test [3] the target is T2, Protein farnesyltransferase alpha subunit/subunit beta (Trypanosoma brucei brucei, UniProt Q9NC76+Q9NC77).
T2 sequence (Q9NC77 whole entry): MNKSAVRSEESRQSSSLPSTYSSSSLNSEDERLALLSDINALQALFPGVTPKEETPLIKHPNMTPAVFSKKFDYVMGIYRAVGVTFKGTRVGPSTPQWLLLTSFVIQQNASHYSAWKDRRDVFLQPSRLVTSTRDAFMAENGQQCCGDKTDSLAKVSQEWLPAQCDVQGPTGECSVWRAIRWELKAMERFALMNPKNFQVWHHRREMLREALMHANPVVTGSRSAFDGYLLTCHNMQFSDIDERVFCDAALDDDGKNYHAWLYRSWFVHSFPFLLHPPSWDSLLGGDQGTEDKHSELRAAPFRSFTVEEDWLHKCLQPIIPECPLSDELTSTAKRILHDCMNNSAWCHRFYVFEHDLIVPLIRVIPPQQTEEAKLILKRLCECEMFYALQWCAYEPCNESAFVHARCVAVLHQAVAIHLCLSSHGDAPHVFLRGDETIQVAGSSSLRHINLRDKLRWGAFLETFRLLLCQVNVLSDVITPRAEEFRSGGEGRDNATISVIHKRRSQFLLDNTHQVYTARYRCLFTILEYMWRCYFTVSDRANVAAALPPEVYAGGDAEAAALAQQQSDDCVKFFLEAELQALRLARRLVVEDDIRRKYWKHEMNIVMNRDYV
T2 sequence (Q9NC76 whole entry): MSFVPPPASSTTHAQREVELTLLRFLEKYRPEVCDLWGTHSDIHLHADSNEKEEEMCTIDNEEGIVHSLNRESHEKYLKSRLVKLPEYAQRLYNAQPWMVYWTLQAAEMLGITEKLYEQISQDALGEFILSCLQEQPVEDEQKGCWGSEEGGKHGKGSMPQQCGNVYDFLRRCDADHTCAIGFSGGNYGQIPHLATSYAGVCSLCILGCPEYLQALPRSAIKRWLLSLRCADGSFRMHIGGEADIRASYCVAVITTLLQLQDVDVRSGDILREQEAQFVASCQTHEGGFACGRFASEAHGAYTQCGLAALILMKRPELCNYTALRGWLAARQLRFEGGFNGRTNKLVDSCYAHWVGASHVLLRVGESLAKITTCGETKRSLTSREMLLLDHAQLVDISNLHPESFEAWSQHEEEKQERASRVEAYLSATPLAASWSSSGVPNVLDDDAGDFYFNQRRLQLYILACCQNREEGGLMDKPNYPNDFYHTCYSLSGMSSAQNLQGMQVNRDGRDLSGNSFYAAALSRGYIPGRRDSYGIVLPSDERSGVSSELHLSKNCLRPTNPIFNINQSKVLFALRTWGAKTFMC
Nature of the test: T. brucei FTase Assay. The method, then:
Assays were realized on 96-well plates, as described for human FTase with the dansylated peptide Dansyl-GCAIM and the solution contains 15 μL of partially purified Tb-FTase (1.0 mg/mL) in 1 mL peptide solution.

For `COC(=O)c1ccc(-c2c(C(=O)O)sc(SC(C)C)c2C#N)cc1` [3-(4-(Methoxycarbonyl)phenyl)-4-cyano-5-(isopropylthio)thiophene-2-carboxylic acid (1p)], the IC50 came out at 0.085 µM in test [1], 12.8 µM in test [2] and 14 µM in test [3].
